Results on one substance are retold here after patent publication US20150050663A1, “Optimal Gonadotropin Dosage” (Oslo Universitetssykehus HF, priority 2012, published 2015).

The assay relates to peripheral blood monocytes. As to the kind of experiment: uptake of fluorochrome-conjugated gonadotropins by blood-derived leukocytes (FACS). The assay is classed as cell-based, human. The settings on record: FIG. 1B. On the procedure:
Blood-derived monocytes are enriched by density gradient centrifugation. […] Cells are labelled with fluorochrome-conjugated monocyte marker (e.g. anti-CD14-PerCP antibody, as described above) and analyzed with multi-colour flow cytometry (FACS).
Unspecific binding (background) is estimated as MFI for cells incubated on ice
Cells were analyzed with flow cytometry (FACS) with simultaneous detection of multiple cell lineage markers.

Turning to cytochalasin, the “effect on gonadotropin binding to monocytes” value was “inhibited”.
